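How tested: cells in 96-well plates exposed to compound for 48 hours at five concentrations. At the TGI there is no net growth.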
Key:
Experiment in all cases: inhibition of tumour cell growth, NCI panel, 48 h
SNB-19 CNS = test system: SNB-19 CNS
HT29 colon = test system: HT29 colon
NCI-H226 lung = test system: NCI-H226 lung
NCI-H460 lung = test system: NCI-H460 lung
786-0 renal = test system: 786-0 renal
MCF7 breast = test system: MCF7 breast
ACHN renal = test system: ACHN renal
NCI-H522 lung = test system: NCI-H522 lung
IGROV1 ovarian = test system: IGROV1 ovarian
MDA-N = test system: MDA-N
LOX IMVI melanoma = test system: LOX IMVI melanoma
HCT-116 colon = test system: HCT-116 colon
HCT-15 colon = test system: HCT-15 colon
COLO 205 colon = test system: COLO 205 colon
OVCAR-3 ovarian = test system: OVCAR-3 ovarian
K-562 leukemia = test system: K-562 leukemia
A549 NSCLC = test system: A549 NSCLC
NCI-H23 lung = test system: NCI-H23 lung
SF-539 CNS = test system: SF-539 CNS
DU-145 prostate = test system: DU-145 prostate

| Structure (SMILES) | TGI (SNB-19 CNS) [µM] | TGI (HT29 colon) [µM] | TGI (NCI-H226 lung) [µM] | TGI (NCI-H460 lung) [µM] | TGI (786-0 renal) [µM] | TGI (MCF7 breast) [µM] | TGI (ACHN renal) [µM] | TGI (NCI-H522 lung) [µM] | TGI (IGROV1 ovarian) [µM] | TGI (MDA-N) [µM] | TGI (LOX IMVI melanoma) [µM] | TGI (HCT-116 colon) [µM] | TGI (HCT-15 colon) [µM] | TGI (COLO 205 colon) [µM] | TGI (OVCAR-3 ovarian) [µM] | TGI (K-562 leukemia) [µM] | TGI (A549 NSCLC) [µM] | TGI (NCI-H23 lung) [µM] | TGI (SF-539 CNS) [µM] | TGI (DU-145 prostate) [µM] |
| --- | --- | --- | --- | --- | --- | --- | --- | --- | --- | --- | --- | --- | --- | --- | --- | --- | --- | --- | --- | --- |
| c1ccc([P+](Cc2ccc(C[P+](c3ccccc3)(c3ccccc3)c3ccccc3)cc2)(c2ccccc2)c2ccccc2)cc1 | > 100 | > 100 | > 100 | > 100 | > 100 | > 100 | > 100 | > 100 | > 100 | > 100 | 50 | > 100 | > 100 | > 100 | > 100 | 29.8 | > 100 | > 100 | > 100 | > 100 |
| COc1ccc2oc(=N)c(C(=O)NCc3ccccc3)cc2c1 | > 100 | > 100 | 85 | > 100 | > 100 | 69.1 | 73.9 | 43.5 | 60.8 | 59.9 | > 100 | > 100 | > 100 | > 100 | > 100 | 86.8 | > 100 | 43.1 | 56.6 | 88.8 |
| COCCN(C(C)=O)C1CCC2(SCCS2)c2[nH]c3ccccc3c21 (stereo not given) | > 100 | > 100 | > 100 | > 100 | > 100 | > 100 | > 100 | > 100 | > 100 | > 100 | > 100 | > 100 | > 100 | > 100 | > 100 | > 100 | > 100 | > 100 | > 100 | > 100 |
| CCSCCC(N)C(=O)O (stereo not given) | > 100 | > 100 | > 100 | > 100 | > 100 | > 100 | > 100 | > 100 | > 100 | > 100 | > 100 | > 100 | > 100 | > 100 | > 100 | > 100 | > 100 | > 100 | > 100 | > 100 |
| CCCNC(=O)c1cc(NC(=O)c2cc(NC(=O)/C=C/c3ccccc3)c(OC)c(OC)c2)c(OC)c(OC)c1 | 21.6 | 66.5 | 0.17 | 82.5 | 18.6 | 28.5 | 36.8 | 23.1 | 31.7 | > 100 | 8.35 | > 100 | > 100 | > 100 | 17.9 | > 100 | 23.9 | > 100 | 20.4 | > 100 |
| Cc1nc2cccc(F)c2c(=O)n1C1CCCCNC1=O (stereo not given) | > 10 | > 10 | > 10 | > 10 | > 10 | > 10 | > 10 | > 10 | > 10 | > 10 | > 10 | > 10 | > 10 | > 10 | > 10 | > 10 | > 10 | > 10 | > 10 | > 10 |
| CN(C)CCCNC(=O)CCNC(=O)c1cc(NC(=O)c2cc(NC(=O)c3cc(NC(=O)c4nc(NC(=O)CCCNC(=O)c5cc(NC(=O)c6cc(NC(=O)c7cc(NC(=O)c8nccn8C)cn7C)cn6C)cn5C)cn4C)cn3C)cn2C)cn1C | > 100 | > 100 | > 100 | > 100 | > 100 | > 100 | > 100 | > 100 | > 100 | > 100 | > 100 | > 100 | > 100 | > 100 | > 100 | > 100 | > 100 | > 100 | > 100 | > 100 |
| Cn1c(=S)[nH]c2sc3c(c2c1=O)CCSC3 | > 100 | > 100 | 88.6 | > 100 | > 100 | > 100 | > 100 | > 100 | > 100 | > 100 | > 100 | > 100 | > 100 | > 100 | 61 | > 100 | > 100 | > 100 | > 100 | 57.1 |
| O=c1cc(NNc2ccccc2)[nH]c(=S)[nH]1 | > 100 | > 100 | > 100 | > 100 | > 100 | > 100 | > 100 | 35.7 | > 100 | > 100 | 31.3 | 53.9 | 42.1 | > 100 | 31.4 | 80.2 | > 100 | > 100 | > 100 | > 100 |
| Cc1ccc(C2=Nc3cccc4cccc(c34)N2)cc1 | > 100 | > 100 | > 100 | > 100 | > 100 | > 100 | > 100 | > 100 | > 100 | > 100 | > 100 | > 100 | > 100 | > 100 | > 100 | > 100 | > 100 | > 100 | > 100 | > 100 |
| O=[N+]([O-])C(C(Cl)=C(Cl)Cl)=C(N(Cc1ccccc1)Cc1ccccc1)N(Cc1ccccc1)Cc1ccccc1 | > 100 | > 100 | > 100 | > 100 | > 100 | > 100 | > 100 | > 100 | > 100 | > 100 | > 100 | > 100 | > 100 | > 100 | > 100 | > 100 | > 100 | > 100 | 76.6 | > 100 |
| O=C(CCCN1CCC2(CC1)OC(=O)N(c1ccccc1)C2=O)c1ccccc1 | > 100 | > 100 | > 100 | > 100 | > 100 | > 100 | > 100 | > 100 | > 100 | > 100 | > 100 | > 100 | > 100 | > 100 | > 100 | > 100 | > 100 | > 100 | > 100 | > 100 |

From PubChem BioAssay (NCI)
